Source: PubChem BioAssay AID743496 (The Scripps Research Institute Molecular Screening Center, 2014)
Activity calls are given as the source filed them. No rule for the calls is given here.

system: Ga16-expressing cells, calcium fluorescence, counterscreen for TAAR1 agonists; assay: Ga16 cell calcium activation, analog series – fluorescence, dose response, MedChem round 1, counter-screen for TAAR1 agonist project, SAR follow-up (AID 743496)

SMILES	EC50
CC(CN1CCC(c2ccccc2)C1)C(=O)c1ccc2c(c1)OCCO2 (stereo unspecified)	> 29.9 µM (inactive)
CC1CN(CCC(=O)c2ccc3c(c2)OCCO3)CC1c1ccccc1 (stereo unspecified)	> 29.9 µM (inactive)
O=C(CCN1C[C@@H](C(=O)O)[C@H](c2cccc(F)c2)C1)NC1CC1	> 29.9 µM (inactive)
O=C(CCN1CCC(O)(c2ccc(F)cc2)C1)c1ccc2c(c1)OCCO2 (stereo unspecified)	> 29.9 µM (inactive)
O=C(CCN1CCC(c2ccccc2)C1)c1ccccc1 (stereo unspecified)	> 29.9 µM (inactive)
CC(CN1CCCC1Cc1ccccc1)C(=O)c1ccc2c(c1)OCCO2 (stereo unspecified)	> 29.9 µM (inactive)
NC(=O)CCN1C[C@H](c2ccccc2)[C@@H]2[C@H]1C1CCN2CC1	> 29.9 µM (inactive)
O=C(CCN1CCC(O)(c2ccccc2)C1)c1ccc2c(c1)OCCO2 (stereo unspecified)	> 29.9 µM (inactive)
O=C(CCN1C[C@@H](C(=O)O)[C@H](c2ccccc2)C1)NC1CCCC1	> 29.9 µM (inactive)
Cc1ccc(C(=O)CCN2CCC(c3ccccc3)C2)cc1 (stereo unspecified)	> 29.9 µM (inactive)
O=C(CCN1C[C@@H](C(=O)O)[C@H](c2ccccc2)C1)NCc1cccs1	> 29.9 µM (inactive)
